In patent publication US9109004B2, “Progesterone receptor antagonists” (Bayer Intellectual Property GmbH, priority 2010, dated 2015):

Target: T1, human progesterone receptor A (Homo sapiens, UniProt P06401)
T1 construct: expressed in transfected cells; host or cells: SK-N-MC human neuroblastoma cells, stably transfected
T1 sequence (P06401 1-769 isoform P06401-2): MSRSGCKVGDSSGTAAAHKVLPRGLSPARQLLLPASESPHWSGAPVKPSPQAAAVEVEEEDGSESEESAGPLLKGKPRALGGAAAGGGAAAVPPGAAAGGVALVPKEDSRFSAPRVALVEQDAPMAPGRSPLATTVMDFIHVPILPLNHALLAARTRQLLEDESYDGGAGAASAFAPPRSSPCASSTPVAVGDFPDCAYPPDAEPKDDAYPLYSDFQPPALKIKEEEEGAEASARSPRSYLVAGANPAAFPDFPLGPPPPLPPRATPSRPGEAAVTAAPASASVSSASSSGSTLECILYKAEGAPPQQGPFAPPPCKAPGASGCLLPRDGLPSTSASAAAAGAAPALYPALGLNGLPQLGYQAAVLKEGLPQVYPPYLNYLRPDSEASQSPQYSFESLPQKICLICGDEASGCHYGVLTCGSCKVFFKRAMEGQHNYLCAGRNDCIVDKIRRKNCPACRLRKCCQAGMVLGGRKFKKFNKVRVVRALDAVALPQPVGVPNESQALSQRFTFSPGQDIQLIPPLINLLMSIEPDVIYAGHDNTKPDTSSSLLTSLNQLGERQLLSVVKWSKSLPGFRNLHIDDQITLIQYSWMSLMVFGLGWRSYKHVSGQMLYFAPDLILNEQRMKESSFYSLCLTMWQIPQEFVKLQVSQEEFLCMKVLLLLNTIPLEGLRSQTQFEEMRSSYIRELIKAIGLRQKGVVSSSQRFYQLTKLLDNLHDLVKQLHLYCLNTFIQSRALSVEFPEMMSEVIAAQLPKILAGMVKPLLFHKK
Assay: Progesterone-receptor-antagonistic action in stably transfected SK-N-MC cells, MTV-LUC reporter (PR-A)
Type: cell-based
Settings: antagonistic potency vs 0.1 nmol/l promegestone, 24 hours, luciferase
Experimental: Progesterone-Receptor-Antagonistic Action in Stable Transfectants of Human Neuroblastoma Cells (SK-N-MC Cells) with the Human Progesterone A or Progesterone B Receptor and an MTV-LUC Reporter Construct
SK-N-MC cells (human neuroblastoma cells) that have been stably transfected with plasmids that express the human progesterone receptor B (pRChPR-B-neo) or the human progesterone receptor A (pRChPR-A-neo) and a reporter construct (pMMTV-LUC), were incubated for 24 hours either in the absence (negative control) or in the presence of increasing amounts of the particular test compound (0.01 nmol/l, 0.1 nmol/l, 1 nmol/l, 10 nmol/l, 100 nmol/l and 1 μmol/l), to determine the agonistic efficacy. As positive control of reporter gene induction, the cells were treated with the synthetic gestagen promegestone (0.01 nmol/l, 0.1 nmol/l, 1 nmol/l, 10 nmol/l, 100 nmol/l and 1 μmol/l). For determination of the antagonistic activity, the cells were treated with 0.1 nmol/l promegestone and additionally with increasing amounts of the particular test compound (0.01 nmol/l, 0.1 nmol/l, 1 nmol/l, 10 nmol/l, 100 nmol/l and 1 μmol/l). The activity of the reporter gene LUC (LUC=luciferase) was determined in the cell lysates and was measured as RLU (relative light units). All measured values are given as % efficacy and as EC50 or IC50 concentrations.

IC50 [nM] | Structure (SMILES)
0.67 | C[C@]12C[C@H](c3ccc(C(=O)NCCc4ccccc4)cc3)C3=C4CCC(=O)C=C4CC[C@H]3[C@@H]1CC[C@@]2(O)C(F)(F)C(F)(F)F [Example 16, 4-[(11β,17β)-17-hydroxy-3-oxo-17-(pentafluoroethyl)estra-4,9-dien-11-yl]-N-(2-phenylethyl)benzamide]
15.7 | CN(CCc1ccccn1)C(=O)c1ccc([C@H]2C[C@@]3(C)[C@@H](CC[C@@]3(O)C(F)(F)C(F)(F)F)[C@@H]3CCC4=CC(=O)CCC4=C32)cc1 [Example 50, 4-[(11β,17β)-17-hydroxy-3-oxo-17-(pentafluoroethyl)estra-4,9-dien-11-yl]-N-methyl-N-[2-(pyridin-2-yl)ethyl]benzamide]
6.98 | CN(Cc1ccncc1)C(=O)c1ccc([C@H]2C[C@@]3(C)[C@@H](CC[C@@]3(O)C(F)(F)C(F)(F)F)[C@@H]3CCC4=CC(=O)CCC4=C32)cc1 [Example 33, 4-[(11β,17β)-17-hydroxy-3-oxo-17-(pentafluoroethyl)estra-4,9-dien-11-yl]-N-methyl-N-(pyridin-4-ylmethyl)benzamide]
0.5 | C[C@]12C[C@H](c3ccc(C(=O)Nc4ccccc4C(=O)O)cc3)C3=C4CCC(=O)C=C4CC[C@H]3[C@@H]1CC[C@@]2(O)C(F)(F)C(F)(F)F [Example 76, 2-({4-[(11β,17β)-17-Hydroxy-3-oxo-17-(pentafluoroethyl)estra-4,9-dien-11-yl]benzoyl}amino)benzoic acid]
10.8 | CN(Cc1ccccn1)C(=O)c1ccc([C@H]2C[C@@]3(C)[C@@H](CC[C@@]3(O)C(F)(F)C(F)(F)F)[C@@H]3CCC4=CC(=O)CCC4=C32)cc1 [Example 31, 4-[(11β,17β)-17-hydroxy-3-oxo-17-(pentafluoroethyl)estra-4,9-dien-11-yl]-N-methyl-N-(pyridin-2-ylmethyl)benzamide]
63 | CN(C(=O)c1ccc([C@H]2C[C@@]3(C)[C@@H](CC[C@@]3(O)C(F)(F)C(F)(F)F)[C@@H]3CCC4=CC(=O)CCC4=C32)cc1)c1ccccc1 [Example 28, 4-[(11β,17β)-17-hydroxy-3-oxo-17-(pentafluoroethyl)estra-4,9-dien-11-yl]-N-methyl-N-phenylbenzamide]
14.4 | C[C@]12C[C@H](c3ccc(C(=O)NCc4ccccc4)cc3)C3=C4CCC(=O)C=C4CC[C@H]3[C@@H]1CC[C@@]2(O)C(F)(F)C(F)(F)F [Example 34, N-benzyl-4-[(11β,17β)-17-hydroxy-3-oxo-17-(pentafluoroethyl)estra-4,9-dien-11-yl]benzamide]

The next lines start with the molecule.

Structure (SMILES) | IC50 [nM]
C[C@]12C[C@H](c3ccc(C(=O)Nc4ccncc4)cc3)C3=C4CCC(=O)C=C4CC[C@H]3[C@@H]1CC[C@@]2(O)C(F)(F)C(F)(F)F [Example 14, 4-[(11β,17β)-17-hydroxy-3-oxo-17-(pentafluoroethyl)estra-4,9-dien-11-yl]-N-(pyridin-4-yl)benzamide] | 0.42
C[C@]12C[C@H](c3ccc(C(=O)NCc4ccccn4)cc3)C3=C4CCC(=O)C=C4CC[C@H]3[C@@H]1CC[C@@]2(O)C(F)(F)C(F)(F)F [Example 20, 4-[(11β,17β)-17-hydroxy-3-oxo-17-(pentafluoroethyl)estra-4,9-dien-11-yl]-N-(pyridin-2-ylmethyl)benzamide] | 3.8
CN(C)C(=O)N1CCN(C(=O)c2ccc([C@H]3C[C@@]4(C)[C@@H](CC[C@@]4(O)C(F)(F)C(F)(F)F)[C@@H]4CCC5=CC(=O)CCC5=C43)cc2)CC1 [Example 66, 4-{4-[(11β,17β)-17-hydroxy-3-oxo-17-(pentafluoroethyl)estra-4,9-dien-11-yl]benzoyl}-N,N-dimethylpiperazine-1-carboxamide] | 35
CNC(=O)CN1CCN(C(=O)c2ccc([C@H]3C[C@@]4(C)[C@@H](CC[C@@]4(O)C(F)(F)C(F)(F)F)[C@@H]4CCC5=CC(=O)CCC5=C43)cc2)CC1 [Example 71, 2-(4-{4-[(11β,17β)-17-hydroxy-3-oxo-17-(pentafluoroethyl)estra-4,9-dien-11-yl]benzoyl}piperazin-1-yl)-N-methylacetamide] | 38
C[C@]12C[C@H](c3ccc(C(=O)Nc4ccc(Cl)cc4)cc3)C3=C4CCC(=O)C=C4CC[C@H]3[C@@H]1CC[C@@]2(O)C(F)(F)C(F)(F)F [Example 26, N-(4-chlorophenyl)-4-[(11β,17β)-17-hydroxy-3-oxo-17-(pentafluoroethyl)estra-4,9-dien-11-yl]benzamide] | 28
C[C@]12C[C@H](c3ccc(C(=O)NCCc4ccncc4)cc3)C3=C4CCC(=O)C=C4CC[C@H]3[C@@H]1CC[C@@]2(O)C(F)(F)C(F)(F)F [Example 64, 4-[(11β,17β)-17-hydroxy-3-oxo-17-(pentafluoroethyl)estra-4,9-dien-11-yl]-N-[2-(pyridin-4-yl)ethyl]benzamide] | 1.1
C[C@]12C[C@H](c3ccc(C(=O)NCc4ccc(S(N)(=O)=O)cc4)cc3)C3=C4CCC(=O)C=C4CC[C@H]3[C@@H]1CC[C@@]2(O)C(F)(F)C(F)(F)F [Example 18, 4-[(11β,17β)-17-hydroxy-3-oxo-17-(pentafluoroethyl)estra-4,9-dien-11-yl]-N-(4-sulphamoylbenzyl)benzamide] | 4.7
COC(=O)c1cccc(NC(=O)c2ccc([C@H]3C[C@@]4(C)[C@@H](CC[C@@]4(O)C(F)(F)C(F)(F)F)[C@@H]4CCC5=CC(=O)CCC5=C43)cc2)c1 [Example 57, methyl-3-({4-[(11β,17β)-17-hydroxy-3-oxo-17-(pentafluoroethyl)estra-4,9-dien-11-yl]benzoyl}amino)benzoate] | 0.8
CC(=O)NCCNC(=O)c1ccc([C@H]2C[C@@]3(C)[C@@H](CC[C@@]3(O)C(F)(F)C(F)(F)F)[C@@H]3CCC4=CC(=O)CCC4=C32)cc1 [Example 37, N-(2-acetamidoethyl)-4-[(11β,17β)-17-hydroxy-3-oxo-17-(pentafluoroethyl)estra-4,9-dien-11-yl]benzamide] | 385
COC(=O)c1ccc(NC(=O)c2ccc([C@H]3C[C@@]4(C)[C@@H](CC[C@@]4(O)C(F)(F)C(F)(F)F)[C@@H]4CCC5=CC(=O)CCC5=C43)cc2)cc1 [Example 38, methyl-4-({4-[(11β,17β)-17-hydroxy-3-oxo-17-(pentafluoroethyl)estra-4,9-dien-11-yl]benzoyl}amino)benzoate] | 1.88
COc1cccc(NC(=O)c2ccc([C@H]3C[C@@]4(C)[C@@H](CC[C@@]4(O)C(F)(F)C(F)(F)F)[C@@H]4CCC5=CC(=O)CCC5=C43)cc2)c1 [Example 24, 4-[(11β,17β)-17-hydroxy-3-oxo-17-(pentafluoroethyl)estra-4,9-dien-11-yl]-N-(3-methoxyphenyl)benzamide] | 3.7
C[C@]12C[C@H](c3ccc(C(=O)N4CCN(CCc5ccccc5)CC4)cc3)C3=C4CCC(=O)C=C4CC[C@H]3[C@@H]1CC[C@@]2(O)C(F)(F)C(F)(F)F [Example 44, (11β,17β)-17-hydroxy-17-(pentafluoroethyl)-11-(4-{[4-(2-phenylethyl)piperazin-1-yl]carbonyl}phenyl)estra-4,9-dien-3-one] | 25
C[C@]12C[C@H](c3ccc(C(=O)NCc4ccc(Cl)cc4)cc3)C3=C4CCC(=O)C=C4CC[C@H]3[C@@H]1CC[C@@]2(O)C(F)(F)C(F)(F)F [Example 36, N-(4-chlorobenzyl)-4-[(11β,17β)-17-hydroxy-3-oxo-17-(pentafluoroethyl)estra-4,9-dien-11-yl]benzamide] | 20
CN1CCN(CCNC(=O)c2ccc([C@H]3C[C@@]4(C)[C@@H](CC[C@@]4(O)C(F)(F)C(F)(F)F)[C@@H]4CCC5=CC(=O)CCC5=C43)cc2)CC1 [Example 62, 4-[(11β,17β)-17-hydroxy-3-oxo-17-(pentafluoroethyl)estra-4,9-dien-11-yl]-N-[2-(4-methylpiperazin-1-yl)ethyl]benzamide] | 94
